Values joined by “and” are separate entries in the source; they are usually repeats but may differ in a detail not shown here. Identical values can stand only once. ± gives the expanded uncertainty stated by the source.
Legend:
[1] = 298.15 K; 101.33 kPa; Liquid; Vibrating tube method
[2] = excess molar enthalpy (molar enthalpy of mixing); xn = mol fraction of the nth substance listed

Structure (SMILES): CC1CCCCC1 [methylcyclohexane]
- mass density [1]: 764.96 ± 0.42 kg/m3 and 764.97 ± 0.18 kg/m3

Structure (SMILES): CC1CCCCC1 [methylcyclohexane] + CN(C)C=O
- excess molar enthalpy ([2]; 298.15 K, 101.33 kPa, Liquid, x1 = 0.031): 0.0593 ± 0.00182 kcal/mol
- excess molar enthalpy ([2]; 298.15 K, 101.33 kPa, Liquid, x1 = 0.0633): 0.104 ± 0.00287 kcal/mol
- excess molar enthalpy ([2]; 298.15 K, 101.33 kPa, Liquid, x1 = 0.0969): 0.162 ± 0.0043 kcal/mol
- excess molar enthalpy ([2]; 298.15 K, 101.33 kPa, Liquid, x1 = 0.132): 0.209 ± 0.00526 kcal/mol
- excess molar enthalpy ([2]; 298.15 K, 101.33 kPa, Liquid, x1 = 0.924): 0.17 ± 0.0043 kcal/mol
- excess molar enthalpy ([2]; 298.15 K, 101.33 kPa, Liquid, x1 = 0.9274): 0.163 ± 0.0043 kcal/mol
- excess molar enthalpy ([2]; 298.15 K, 101.33 kPa, Liquid, x1 = 0.9305): 0.159 ± 0.00406 kcal/mol
- excess molar enthalpy ([2]; 298.15 K, 101.33 kPa, Liquid, x1 = 0.9383): 0.147 ± 0.00382 kcal/mol
- excess molar enthalpy ([2]; 298.15 K, Liquid mixture 1, x1 = 0.1685): 0.228 ± 0.00574 kcal/mol
- excess molar enthalpy ([2]; 298.15 K, Liquid mixture 1, x1 = 0.2068): 0.234 ± 0.00598 kcal/mol
- excess molar enthalpy ([2]; 298.15 K, Liquid mixture 1, x1 = 0.2467): 0.233 ± 0.00598 kcal/mol
- excess molar enthalpy ([2]; 298.15 K, Liquid mixture 1, x1 = 0.2893): 0.233 ± 0.00598 kcal/mol
- excess molar enthalpy ([2]; 298.15 K, Liquid mixture 1, x1 = 0.3322): 0.231 ± 0.00598 kcal/mol
- excess molar enthalpy ([2]; 298.15 K, Liquid mixture 1, x1 = 0.3781): 0.227 ± 0.00574 kcal/mol
- excess molar enthalpy ([2]; 298.15 K, Liquid mixture 1, x1 = 0.3782): 0.226 ± 0.00574 kcal/mol
- excess molar enthalpy ([2]; 298.15 K, Liquid mixture 1, x1 = 0.4264): 0.224 ± 0.00574 kcal/mol
- excess molar enthalpy ([2]; 298.15 K, Liquid mixture 1, x1 = 0.4771): 0.221 ± 0.00574 kcal/mol
- excess molar enthalpy ([2]; 298.15 K, Liquid mixture 1, x1 = 0.5304): 0.218 ± 0.0055 kcal/mol
- excess molar enthalpy ([2]; 298.15 K, Liquid mixture 1, x1 = 0.5867): 0.215 ± 0.0055 kcal/mol
- excess molar enthalpy ([2]; 298.15 K, Liquid mixture 1, x1 = 0.646): 0.212 ± 0.00526 kcal/mol
- excess molar enthalpy ([2]; 298.15 K, Liquid mixture 1, x1 = 0.7087): 0.208 ± 0.00526 kcal/mol
- excess molar enthalpy ([2]; 298.15 K, Liquid mixture 1, x1 = 0.7751): 0.204 ± 0.00526 kcal/mol
- excess molar enthalpy ([2]; 298.15 K, Liquid mixture 1, x1 = 0.8455): 0.199 ± 0.00502 kcal/mol
- excess molar enthalpy ([2]; 298.15 K, Liquid mixture 1, x1 = 0.9204): 0.179 ± 0.00454 kcal/mol
- excess molar enthalpy ([2]; 313.15 K, 101.33 kPa, Liquid, x1 = 0.031): 0.058 ± 0.00184 kcal/mol
- excess molar enthalpy ([2]; 313.15 K, 101.33 kPa, Liquid, x1 = 0.0634): 0.114 ± 0.00311 kcal/mol
- excess molar enthalpy ([2]; 313.15 K, 101.33 kPa, Liquid, x1 = 0.097): 0.166 ± 0.0043 kcal/mol
- excess molar enthalpy ([2]; 313.15 K, 101.33 kPa, Liquid, x1 = 0.1321): 0.215 ± 0.0055 kcal/mol
- excess molar enthalpy ([2]; 313.15 K, 101.33 kPa, Liquid, x1 = 0.1687): 0.26 ± 0.00669 kcal/mol
- excess molar enthalpy ([2]; 313.15 K, 101.33 kPa, Liquid, x1 = 0.2069): 0.298 ± 0.00741 kcal/mol
- excess molar enthalpy ([2]; 313.15 K, 101.33 kPa, Liquid, x1 = 0.9204): 0.182 ± 0.00478 kcal/mol
- excess molar enthalpy ([2]; 313.15 K, 101.33 kPa, Liquid, x1 = 0.9383): 0.154 ± 0.00406 kcal/mol
- excess molar enthalpy ([2]; 313.15 K, 101.33 kPa, Liquid, x1 = 0.9552): 0.118 ± 0.00335 kcal/mol
- excess molar enthalpy ([2]; 313.15 K, Liquid mixture 1, x1 = 0.2469): 0.315 ± 0.00789 kcal/mol
- excess molar enthalpy ([2]; 313.15 K, Liquid mixture 1, x1 = 0.2887): 0.319 kcal/mol and 0.317 kcal/mol
- excess molar enthalpy ([2]; 313.15 K, Liquid mixture 1, x1 = 0.3325): 0.317 ± 0.00789 kcal/mol
- excess molar enthalpy ([2]; 313.15 K, Liquid mixture 1, x1 = 0.3784): 0.316 ± 0.00789 kcal/mol
- excess molar enthalpy ([2]; 313.15 K, Liquid mixture 1, x1 = 0.4267): 0.314 ± 0.00789 kcal/mol
- excess molar enthalpy ([2]; 313.15 K, Liquid mixture 1, x1 = 0.4773): 0.312 ± 0.00789 kcal/mol
- excess molar enthalpy ([2]; 313.15 K, Liquid mixture 1, x1 = 0.5307): 0.308 ± 0.00765 kcal/mol
- excess molar enthalpy ([2]; 313.15 K, Liquid mixture 1, x1 = 0.5869): 0.306 ± 0.00765 kcal/mol
- excess molar enthalpy ([2]; 313.15 K, Liquid mixture 1, x1 = 0.6462): 0.304 ± 0.00765 kcal/mol
- excess molar enthalpy ([2]; 313.15 K, Liquid mixture 1, x1 = 0.7089): 0.301 ± 0.00765 kcal/mol
- excess molar enthalpy ([2]; 313.15 K, Liquid mixture 1, x1 = 0.7753): 0.297 ± 0.00741 kcal/mol
- excess molar enthalpy ([2]; 313.15 K, Liquid mixture 1, x1 = 0.8457): 0.276 ± 0.00693 kcal/mol

Structure (SMILES): CC1CCCCC1 [methylcyclohexane] + CO
- excess molar enthalpy ([2]; 298.15 K, 101.33 kPa, Liquid, x1 = 0.0166): 0.0185 ± 0.00086 kcal/mol
- excess molar enthalpy ([2]; 298.15 K, 101.33 kPa, Liquid, x1 = 0.0345): 0.0357 ± 0.0012 kcal/mol
- excess molar enthalpy ([2]; 298.15 K, 101.33 kPa, Liquid, x1 = 0.0537): 0.052 ± 0.00155 kcal/mol
- excess molar enthalpy ([2]; 298.15 K, 101.33 kPa, Liquid, x1 = 0.0743): 0.066 ± 0.00186 kcal/mol
- excess molar enthalpy ([2]; 298.15 K, 101.33 kPa, Liquid, x1 = 0.0967): 0.0793 ± 0.00217 kcal/mol
- excess molar enthalpy ([2]; 298.15 K, 101.33 kPa, Liquid, x1 = 0.121): 0.0911 ± 0.00239 kcal/mol
- excess molar enthalpy ([2]; 298.15 K, 101.33 kPa, Liquid, x1 = 0.859): 0.101 ± 0.00263 kcal/mol
- excess molar enthalpy ([2]; 298.15 K, 101.33 kPa, Liquid, x1 = 0.9056): 0.0887 ± 0.00239 kcal/mol
- excess molar enthalpy ([2]; 298.15 K, Liquid mixture 1, x1 = 0.1475): 0.0996 ± 0.00263 kcal/mol
- excess molar enthalpy ([2]; 298.15 K, Liquid mixture 1, x1 = 0.1764): 0.103 ± 0.00263 kcal/mol
- excess molar enthalpy ([2]; 298.15 K, Liquid mixture 1, x1 = 0.2082): 0.104 ± 0.00263 kcal/mol
- excess molar enthalpy ([2]; 298.15 K, Liquid mixture 1, x1 = 0.2411): 0.105 ± 0.00287 kcal/mol
- excess molar enthalpy ([2]; 298.15 K, Liquid mixture 1, x1 = 0.2432): 0.105 ± 0.00287 kcal/mol
- excess molar enthalpy ([2]; 298.15 K, Liquid mixture 1, x1 = 0.2819): 0.105 ± 0.00287 kcal/mol
- excess molar enthalpy ([2]; 298.15 K, Liquid mixture 1, x1 = 0.3251): 0.106 ± 0.00287 kcal/mol
- excess molar enthalpy ([2]; 298.15 K, Liquid mixture 1, x1 = 0.3736): 0.106 ± 0.00287 kcal/mol
- excess molar enthalpy ([2]; 298.15 K, Liquid mixture 1, x1 = 0.4283): 0.107 ± 0.00287 kcal/mol
- excess molar enthalpy ([2]; 298.15 K, Liquid mixture 1, x1 = 0.4907): 0.108 ± 0.00287 kcal/mol
- excess molar enthalpy ([2]; 298.15 K, Liquid mixture 1, x1 = 0.5623): 0.108 ± 0.00287 kcal/mol
- excess molar enthalpy ([2]; 298.15 K, Liquid mixture 1, x1 = 0.6453): 0.109 ± 0.00287 kcal/mol
- excess molar enthalpy ([2]; 298.15 K, Liquid mixture 1, x1 = 0.7429): 0.111 ± 0.00287 kcal/mol
- excess molar enthalpy ([2]; 298.15 K, Liquid mixture 1, x1 = 0.8061): 0.109 ± 0.00287 kcal/mol
- excess molar enthalpy ([2]; 313.15 K, 101.33 kPa, Liquid, x1 = 0.0166): 0.02 ± 0.000908 kcal/mol
- excess molar enthalpy ([2]; 313.15 K, 101.33 kPa, Liquid, x1 = 0.0343): 0.0381 ± 0.00127 kcal/mol
- excess molar enthalpy ([2]; 313.15 K, 101.33 kPa, Liquid, x1 = 0.0534): 0.0559 ± 0.00165 kcal/mol
- excess molar enthalpy ([2]; 313.15 K, 101.33 kPa, Liquid, x1 = 0.0741): 0.0718 ± 0.00201 kcal/mol
- excess molar enthalpy ([2]; 313.15 K, 101.33 kPa, Liquid, x1 = 0.0964): 0.0868 ± 0.00237 kcal/mol
- excess molar enthalpy ([2]; 313.15 K, 101.33 kPa, Liquid, x1 = 0.1206): 0.101 ± 0.00263 kcal/mol
- excess molar enthalpy ([2]; 313.15 K, 101.33 kPa, Liquid, x1 = 0.147): 0.114 ± 0.00311 kcal/mol
- excess molar enthalpy ([2]; 313.15 K, 101.33 kPa, Liquid, x1 = 0.1758): 0.125 ± 0.00335 kcal/mol
- excess molar enthalpy ([2]; 313.15 K, 101.33 kPa, Liquid, x1 = 0.2075): 0.134 ± 0.00359 kcal/mol
- excess molar enthalpy ([2]; 313.15 K, 101.33 kPa, Liquid, x1 = 0.2411): 0.139 ± 0.00359 kcal/mol
- excess molar enthalpy ([2]; 313.15 K, 101.33 kPa, Liquid, x1 = 0.2424): 0.141 ± 0.00359 kcal/mol
- excess molar enthalpy ([2]; 313.15 K, 101.33 kPa, Liquid, x1 = 0.7423): 0.16 ± 0.00406 kcal/mol
- excess molar enthalpy ([2]; 313.15 K, 101.33 kPa, Liquid, x1 = 0.8057): 0.152 ± 0.00406 kcal/mol
- excess molar enthalpy ([2]; 313.15 K, 101.33 kPa, Liquid, x1 = 0.8588): 0.138 ± 0.00359 kcal/mol
- excess molar enthalpy ([2]; 313.15 K, 101.33 kPa, Liquid, x1 = 0.9055): 0.123 ± 0.00311 kcal/mol
- excess molar enthalpy ([2]; 313.15 K, 101.33 kPa, Liquid, x1 = 0.941): 0.108 ± 0.00287 kcal/mol
- excess molar enthalpy ([2]; 313.15 K, Liquid mixture 1, x1 = 0.2812): 0.145 ± 0.00382 kcal/mol
- excess molar enthalpy ([2]; 313.15 K, Liquid mixture 1, x1 = 0.3244): 0.147 ± 0.00382 kcal/mol
- excess molar enthalpy ([2]; 313.15 K, Liquid mixture 1, x1 = 0.3728): 0.15 ± 0.00382 kcal/mol
- excess molar enthalpy ([2]; 313.15 K, Liquid mixture 1, x1 = 0.4275): 0.154 ± 0.00406 kcal/mol
- excess molar enthalpy ([2]; 313.15 K, Liquid mixture 1, x1 = 0.4898): 0.157 ± 0.00406 kcal/mol
- excess molar enthalpy ([2]; 313.15 K, Liquid mixture 1, x1 = 0.5615): 0.16 ± 0.00406 kcal/mol
- excess molar enthalpy ([2]; 313.15 K, Liquid mixture 1, x1 = 0.6446): 0.164 ± 0.0043 kcal/mol

Structure (SMILES): CN(C)C=O [dimethylformamide]
- mass density [1]: 943.81 ± 0.13 kg/m3 and 943.88 ± 0.1 kg/m3

Structure (SMILES): CO [methanol]
- mass density [1]: 786.55 ± 0.43 kg/m3

From the NIST ThermoML archive (doi:10.1021/je020135f)
